As a reminder, the Ki is the dissociation constant of the complex between target and ligand, obtained from inhibition or displacement. Low values mean tighter binding, high ones weaker binding. By IC50 is commonly meant the concentration needed to halve the response being measured. A lower IC50 goes with inhibition by little substance.

One assay deals with T1, ICE (Homo sapiens, UniProt P29466).
T1 sequence (P29466 120-297 limits assumed): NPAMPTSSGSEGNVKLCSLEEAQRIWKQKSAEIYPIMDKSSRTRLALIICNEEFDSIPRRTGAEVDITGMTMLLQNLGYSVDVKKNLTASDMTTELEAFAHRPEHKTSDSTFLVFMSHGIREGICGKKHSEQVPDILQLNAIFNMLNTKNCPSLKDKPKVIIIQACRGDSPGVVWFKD
T1 sequence (P29466 317-404 limits assumed): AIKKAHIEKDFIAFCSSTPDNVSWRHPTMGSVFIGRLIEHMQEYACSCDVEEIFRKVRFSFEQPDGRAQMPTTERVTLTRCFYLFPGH
Briefly: Enzyme assay with UV-visible substrate (ICE inhibition). The assay is classed as biochemical. The conditions noted are these: Succinyl-Tyr-Val-Ala-Asp-p-Nitroanilide substrate. The procedure:
1. Enzyme Assay with UV-visible Substrate
This assay is run using an Succinyl-Tyr-Val-Ala-Asp-p-Nitroanilide substrate. Synthesis of analogous substrates is described by L. A. Reiter (Int. J. Peptide Protein Res., 43, pp. 87-96 (1994)). The assay mixture contains:
65 μl buffer (10 mM Tris, 1 mM DTT, 0.1% CHAPS @ pH 8.1)
10 μl ICE (50 nM final concentration to give a rate of ˜1 mOD/min)
5 μl DMSO/Inhibitor mixture
20 μl 400 μM Substrate (80 μM final concentration)
100 μl total reaction volume
The visible ICE assay is run in a 96-well microtiter plate. Buffer, ICE and DMSO (if inhibitor is present) are added to the wells in the order listed. The components are left to incubate at room temperature for 15 minutes starting at the time that all components are present in all wells. The microtiter plate reader is set to incubate at 37° C. After the 15 minute incubation, substrate is added directly to the wells and the reaction is monitored by following the release of the chromophore (pNA) at 405-603 nm at 37° C. for 20 minutes. A linear fit of the data is performed and the rate is calculated in mOD/min. DMSO is only present during experiments involving inhibitors, buffer is used to make up the volume to 100 μl in the other experiments.
For determination of enzyme inhibition constants (Ki) or the mode of inhibition (competitive, uncompetitive or noncompetitive), the rate data determined in the enzyme assays at varying inhibitor concentrations are computer-fit to standard enzyme kinetic equations (see I. H. Segel, Enzyme Kinetics, Wiley-Interscience, 1975).

For assay [1], the system named is IL-1β production in human whole blood. Briefly: Whole blood assay for IL-1β production. Type of assay: cell-based. The note with it: LPS-stimulated human whole blood, IL-1β by ELISA. The procedure:
Whole Blood Assay for IL-1β Production
The whole blood assay is a simple method for measuring the production of IL-1β (or other cytokines) and the activity of potential inhibitors. The complexity of this assay system, with its full complement of lymphoid and inflammatory cell types, spectrum of plasma proteins and red blood cells is an ideal in vitro representation of human in vivo physiologic conditions.
Set incubator or water bath at 30° C. Aliquot 0.25 ml of blood into 1.5 ml eppendorf tubes. Note: be sure to invert the whole blood sample tubes after every two aliquots. Differences in replicates may result if the cells sediment and are not uniformly suspended. Use of a positive displacement pipette will also minimize differences between replicate aliquots.
Prepare drug dilutions in sterile pyrogen-free saline by serial dilution. A dilution series which brackets the apparent Ki for a test compound determined in an ICE inhibition assay is generally used for the primary compound screen. For extremely hydrophobic compounds, prepare compound dilutions in fresh plasma obtained from the same blood donor or in PBS-containing 5% DMSO to enhance solubility.
Add 25 μl test compound dilution or vehicle control and gently mix the sample. Then add 5.0 μl LPS solution (250 ng/ml stocked prepared fresh: 5.0 ng/ml final concentration LPS), and mix again. Incubate the tubes at […] in a water bath for 16-18 hr with occasional mixing. Alternatively, the tubes can be placed in a rotator set at 4 rpm for the same incubation period. This assay should be set up in duplicate or triplicate with the following controls: negative control—no LPS; positive control—no test inhibitor; vehicle control—the highest concentration of DMSO or compound solvent used in the experiment. Additional saline is added to all control tubes to normalize volumes for both control and experimental whole blood test samples.
After the incubation period, whole blood samples are centrifuged for 10 minutes at ˜2000 rpm in the microfuge, plasma is transferred to a fresh microfuge tube and centrifuged at 1000×g to pellet residual platelets if necessary. Plasma samples may be stored frozen at −70° C. prior to assay for cytokine levels by ELISA.
R & D Systems (614 McKinley Place N.E. Minneapolis, Minn. 55413) Quantikine kits may be used for measurement of IL-1β and TNF-α. The assays are performed according to the manufacturer's directions. IL-1β levels of ˜1-5 ng/ml in positive controls among a range of individuals may be observed. A 1:200 dilution of plasma for all samples is usually sufficient for experiments for ELISA results to fall on the linear range of the ELISA standard curves. It may be necessary to optimize standard dilutions if you observe differences in the whole blood assay. Nerad, J. L. et al., J. Leukocyte Biol., 52, pp. 687-692 (1992).

Assay [2] concerns mature IL-1β in human PBMC. Briefly: PBMC cell assay (IL-1β assay with human peripheral blood mononuclear cells). Type of assay: cell-based. The conditions noted are these: LPS-stimulated human PBMC, mature IL-1β by ELISA. The text has this: IL-1β Assay with a Mixed Population of Human Peripheral Blood Mononuclear Cells (PBMC) or Enriched Adherent Mononuclear Cells
Processing of pre-IL-1β by ICE can be measured in cell culture using a variety of cell sources. Human PBMC obtained from healthy donors provides a mixed population of lymphocyte subtypes and mononuclear cells that produce a spectrum of interleukins and cytokines in response to many classes of physiological stimulators. Adherent mononuclear cells from PBMC provides an enriched source of normal monocytes for selective studies of cytokine production by activated cells.
An initial dilution series of test compound in DMSO or ethanol is prepared, with a subsequent dilution into RPMI-10% FBS media (containing 2 mM L-glutamine, 10 mM HEPES, 50 U and 50 ug/ml pen/strep) respectively to yield drugs at 4×the final test concentration containing 0.4% DMSO or 0.4% ethanol. The final concentration of DMSO is 0.1% for all drug dilutions. A concentration titration which brackets the apparent Ki for a test compound determined in an ICE inhibition assay is generally used for the primary compound screen.
Generally 5-6 compound dilutions are tested and the cellular component of the assay is performed in duplicate, with duplicate ELISA determinations on each cell culture supernatant.
Buffy coat cells isolated from one pint human blood (yielding 40-45 ml final volume plasma plus cells) are diluted with media to 80 ml and LeukoPREP separation tubes (Becton Dickinson) are each overlaid with 10 ml of cell suspension. After 15 min centrifugation at 1500-1800×g, the plasma/media layer is aspirated and then the mononuclear cell layer is collected with a Pasteur pipette and transferred to a 15 ml conical centrifuge tube (Corning). Media is added to bring the volume to 15 ml, gently mix the cells by inversion and centrifuge at 300×g for 15 min. The PBMC pellet is resuspended in a small volume of media, the cells are counted and adjusted to 6×10^6 cells/ml.
For the cellular assay, 1.0 ml of the cell suspension is added to each well of a 24-well flat bottom tissue culture plate (Corning), 0.5 ml test compound dilution and 0.5 ml LPS solution (Sigma #L-3012; 20 ng/ml solution prepared in complete RPMI media; final LPS concentration 5 ng/ml). The 0.5 ml additions of test compound and LPS are usually sufficient to mix the contents of the wells. Three control mixtures are run per experiment, with either LPS alone, solvent vehicle control, and/or additional media to adjust the final culture volume to 2.0 ml. The cell cultures are incubated for 16-18 hr at 37° C. in the presence of 5% CO2.
At the end of the incubation period, cells are harvested and transferred to 15 ml conical centrifuge tubes. After centrifugation for 10 min at 200×g, supernatants are harvested and transferred to 1.5 ml Eppendorf tubes. It may be noted that the cell pellet may be utilized for a biochemical evaluation of pre-IL-1β and/or mature IL-1β content in cytosol extracts by Western blotting or ELISA with pre-IL-1β specific antisera.
PBMC are isolated and prepared as described above. Media (1.0 ml) is first added to wells followed by 0.5 ml of the PBMC suspension. After a one hour incubation, plates are gently shaken and nonadherent cells aspirated from each well. Wells are then gently washed three times with 1.0 ml of media and final resuspended in 1.0 ml media. The enrichment for adherent cells generally yields 2.5-3.0×10^5 cells per well. […]
Background: In an ELISA, binding on a coated surface is turned into a signal by an enzyme label.

A further assay concerns IL-1β. Briefly: LPS-induced IL-1β production in mice. The conditions noted are these: PO @ 100 mg/kg, compound given 1 hour relative to LPS challenge. The assay is classed as in vivo, mouse. The procedure: In vivo Acute Assay for Efficacy as Anti-inflammatory Agent
LPS-Induced IL-1β Production
Efficacy is evaluated in CD1 mice (n is 6 per condition, for example) challenged with LPS (20 mg/kg IP). The test compounds are prepared in olive oil:DMSO:ethanol (90:5:5) and administered by IP injection one hour after LPS. Blood is collected seven hours after LPS challenge. Serum IL-1β levels are measured by ELISA.
Compounds may also be administered by oral gavage to assess absorption.
We obtained inhibition data in Table 5 using the methods described in Example 12. Efficacy for Prodrugs in LPS-Induced IL-1β Production in Mice. Time of compound administration relative to time of LPS challenge was 1 hour. Dose of compound was PO @ 100 mg/kg.

Bounds are passed on as bounds.

Compound `O=C[C@H](CC(=O)O)NC(=O)CN1C(=O)[C@@H](NC(=O)c2nccc3ccccc23)COc2ccccc21` [Compound 6a] displayed a Ki on ICE of 22 nM. Moreover, the values for the IC50 in assay [1] and in assay [2] were greater than 20000 nM and 1000 nM, respectively.
In turn, `O=C[C@H](CC(=O)O)NC(=O)CN1C(=O)[C@@H](NC(=O)c2nccc3ccccc23)CC(=O)c2ccccc21` [Compound 17b, (3S)-3-[(3S)-2,5-Dioxo-3-(isoquinolin-1-oyl)amino-2,3,4,5-tetrahydro-1H-1-benzazopine-1-acetylamino]-4-oxo-butyric acid.] returned a Ki on ICE of 45 nM. Besides, the IC50 in assay [1] was greater than 20000 nM; in assay [2] it was 1720 nM.
Turning to `O=C[C@H](CC(=O)O)NC(=O)CN1C(=O)[C@@H](NC(=O)c2nccc3ccccc23)CSc2ccccc21` [Compound 11b], the Ki on ICE came out at 14 nM. Besides, the IC50 in assay [1] was 19000 nM; in assay [2] it was 800 nM.
Consider “(3S)-3-(Isoquinolin-1-oyl)amino-4-oxo-2,3,4,5-tetrahydo-5H-1,5-benzothiazepine-N-((2RS, 3S)-2-benzyloxy-5-oxo-tetrahydrofuran-3-yl)-5-acetamide [Compound 10b]”, for which the “% Inhibition of IL-1β” value with IL-1β was determined as 74%.
On ICE, `O=C[C@H](CC(=O)O)NC(=O)CN1C(=O)[C@@H](NC(=O)c2nccc3ccccc23)CS(=O)(=O)c2ccccc21` [Compound 19a] registered a Ki of 140 nM. In addition, the results for the IC50 in assay [1] and in assay [2] were 9500 nM and 770 nM, respectively.
On to `Cc1cc(C(=O)N[C@H]2CC(=O)c3ccccc3N(CC(=O)N[C@H](C=O)CC(=O)O)C2=O)cc(C)c1O` [Compound 17a, (3S)-3-[(3S)-2,5-Dioxo-3-(3,5-dimethyl-4-hydroxybenzoyl)amino-2,3,4,5-tetrahydro-1H-1-benzazepine-1-acetylamino]-4-oxo-butyric acid], for which the inhibitory constant (Ki) on ICE amounted to 12 nM. The compound also showed an IC50 in assay [1] of 3200 nM.
With `O=C[C@H](CC(=O)O)NC(=O)CN1C(=O)[C@@H](NC(=O)c2c[nH]c3ccccc23)COc2ccccc21` [Compound 6c], on ICE, the Ki stood at 20 nM. In addition, the values for the IC50 in assay [1] and in assay [2] were greater than 20000 nM and 650 nM, respectively.
Turning to “(3S)-3-(Isoquinolin-1-oyl)amino-4-oxo-2,3,4,5-tetrahydro-5H-1,5-benzoxazepine-N-[(2RS, 3S)-2-benzyloxy-5-oxo-tetrahydrofuran-3-yl]-5-acetamide [Compound 5a]”, the “% Inhibition of IL-1β” value in the assay with IL-1β came out at 58%.
At ICE, `Cc1cc(C(=O)N[C@H]2CSc3ccccc3N(CC(=O)N[C@H](C=O)CC(=O)O)C2=O)cc(C)c1O` [Compound 11a, (3S)-3-[(3S)-3-(3,5-Dimethyl-4-hydroxybenzoyl)amino-4-oxo-2,3,4,5-tetrahydro-5H-1,5-benzothiazepine-5-acetylamino]-4-oxo-butyric acid] registered a Ki of 7.5 nM. This compound displayed an IC50 in assay [1] of 8800 nM.

Values taken from patent US6350741B1, “Inhibitors of interleukin-1β converting enzyme” (Vertex Pharmaceutical, Inc., priority 1996, dated 2002).
